Data: ChEMBL document CHEMBL4507302, “Data for DCP probe TP-020” (2021)

Assays:
[1] = molecular target: 5'-AMP-activated protein kinase catalytic subunit alpha-2 (Homo sapiens) (UniProt P54646); conditions: Compound concentration 1000.0 nM
[2] = molecular target: Mitogen-activated protein kinase kinase kinase 5 (Homo sapiens) (UniProt Q99683); conditions: Compound concentration 1000.0 nM
[3] = molecular target: Aurora kinase B (Homo sapiens) (UniProt Q96GD4); conditions: Compound concentration 1000.0 nM
[4] = molecular target: Cyclin-dependent kinase 9 (Homo sapiens) (UniProt P50750); conditions: Compound concentration 1000.0 nM
[5] = molecular target: Cyclin-dependent kinase-like 1 (Homo sapiens) (UniProt Q00532); conditions: Compound concentration 1000.0 nM
[6] = molecular target: Citron Rho-interacting kinase (Homo sapiens) (UniProt O14578); conditions: Compound concentration 1000.0 nM
[7] = molecular target: Tyrosine-protein kinase CSK (Homo sapiens) (UniProt P41240); conditions: Compound concentration 1000.0 nM
[8] = molecular target: Casein kinase II subunit alpha (Homo sapiens) (UniProt P68400); conditions: Compound concentration 1000.0 nM
[9] = test system: Epidermal growth factor receptor (Homo sapiens), P00533 [L861Q]; conditions: Compound concentration 1000.0 nM
[10] = molecular target: Eukaryotic translation initiation factor 2-alpha kinase 1 (Homo sapiens) (UniProt Q9BQI3); conditions: Compound concentration 1000.0 nM
[11] = molecular target: Ephrin type-A receptor 8 (Homo sapiens) (UniProt P29322); conditions: Compound concentration 1000.0 nM
[12] = molecular target: Ephrin type-B receptor 4 (Homo sapiens) (UniProt P54760); conditions: Compound concentration 1000.0 nM
[13] = molecular target: Ephrin type-B receptor 6 (Homo sapiens) (UniProt O15197); conditions: Compound concentration 1000.0 nM
[14] = molecular target: Fibroblast growth factor receptor 4 (Homo sapiens) (UniProt P22455); conditions: Compound concentration 1000.0 nM
[15] = test system: Receptor-type tyrosine-protein kinase FLT3 (Homo sapiens), P36888 [D835H]; conditions: Compound concentration 1000.0 nM
[16] = test system: Receptor-type tyrosine-protein kinase FLT3 (Homo sapiens), P36888 [K663Q]; conditions: Compound concentration 1000.0 nM
[17] = test system: Receptor-type tyrosine-protein kinase FLT3 (Homo sapiens), P36888 [R834Q]; conditions: Compound concentration 1000.0 nM
[18] = molecular target: Mitogen-activated protein kinase kinase kinase kinase 1 (Homo sapiens) (UniProt Q92918); conditions: Compound concentration 1000.0 nM
[19] = molecular target: Inhibitor of nuclear factor kappa-B kinase subunit beta (Homo sapiens) (UniProt O14920); conditions: Compound concentration 1000.0 nM
[20] = molecular target: Insulin receptor-related protein (Homo sapiens) (UniProt P14616); conditions: Compound concentration 1000.0 nM
[21] = molecular target: Interleukin-1 receptor-associated kinase 1 (Homo sapiens) (UniProt P51617); conditions: Compound concentration 1000.0 nM
[22] = molecular target: Tyrosine-protein kinase JAK1 (Homo sapiens) (UniProt P23458); conditions: Compound concentration 1000.0 nM
[23] = molecular target: Serine/threonine-protein kinase LATS2 (Homo sapiens) (UniProt Q9NRM7); conditions: Compound concentration 1000.0 nM
[24] = molecular target: Mitogen-activated protein kinase kinase kinase kinase 4 (Homo sapiens) (UniProt O95819); conditions: Compound concentration 1000.0 nM
[25] = molecular target: MAP kinase-activated protein kinase 5 (Homo sapiens) (UniProt Q8IW41); conditions: Compound concentration 1000.0 nM
[26] = test system: Hepatocyte growth factor receptor (Homo sapiens), P08581 [M1250T]; conditions: Compound concentration 1000.0 nM
[27] = molecular target: Serine/threonine-protein kinase 38-like (Homo sapiens) (UniProt Q9Y2H1); conditions: Compound concentration 1000.0 nM
[28] = molecular target: Serine/threonine-protein kinase Nek6 (Homo sapiens) (UniProt Q9HC98); conditions: Compound concentration 1000.0 nM
[29] = molecular target: Mitogen-activated protein kinase kinase kinase 14 (Homo sapiens) (UniProt Q99558); conditions: Compound concentration 1000.0 nM
[30] = molecular target: Serine/threonine-protein kinase PAK 1 (Homo sapiens) (UniProt Q13153); conditions: Compound concentration 1000.0 nM
[31] = molecular target: Phosphorylase b kinase gamma catalytic chain, skeletal muscle/heart isoform (Homo sapiens) (UniProt Q16816); conditions: Compound concentration 1000.0 nM
[32] = molecular target: Phosphatidylinositol 4,5-bisphosphate 3-kinase catalytic subunit alpha isoform (Homo sapiens) (UniProt P42336); conditions: Compound concentration 1000.0 nM
[33] = test system: Phosphatidylinositol 4,5-bisphosphate 3-kinase catalytic subunit alpha isoform (Homo sapiens), P42336 [E545K]; conditions: Compound concentration 1000.0 nM
[34] = molecular target: Serine/threonine-protein kinase PLK1 (Homo sapiens) (UniProt P53350); conditions: Compound concentration 1000.0 nM
[35] = molecular target: cGMP-dependent protein kinase 2 (Homo sapiens) (UniProt Q13237); conditions: Compound concentration 1000.0 nM
[36] = molecular target: Proto-oncogene tyrosine-protein kinase receptor Ret (Homo sapiens) (UniProt P07949); conditions: Compound concentration 1000.0 nM
[37] = molecular target: Serine/threonine-protein kinase TAO2 (Homo sapiens) (UniProt Q9UL54); conditions: Compound concentration 1000.0 nM
[38] = molecular target: Activated CDC42 kinase 1 (Homo sapiens) (UniProt Q07912); conditions: Compound concentration 1000.0 nM
[39] = molecular target: Non-receptor tyrosine-protein kinase TYK2 (Homo sapiens) (UniProt P29597); conditions: Compound concentration 1000.0 nM
[40] = molecular target: Tyrosine-protein kinase ZAP-70 (Homo sapiens) (UniProt P43403); conditions: Compound concentration 1000.0 nM
[41] = molecular target: D(3) dopamine receptor (Homo sapiens) (UniProt P35462); conditions: Compound concentration 10.0 uM
[42] = molecular target: Sodium-dependent serotonin transporter (Homo sapiens) (UniProt P31645); conditions: Compound concentration 10.0 uM
[43] = molecular target: Mu-type opioid receptor (Homo sapiens) (UniProt P35372); conditions: Compound concentration 10.0 uM
[44] = molecular target: Alpha-1B adrenergic receptor (Homo sapiens) (UniProt P35368); conditions: Compound concentration 10.0 uM
[45] = molecular target: Alpha-1D adrenergic receptor (Homo sapiens) (UniProt P25100); conditions: Compound concentration 10.0 uM

MAP kinase-activated protein kinase 5 (Homo sapiens), sequence (Q8IW41 whole entry): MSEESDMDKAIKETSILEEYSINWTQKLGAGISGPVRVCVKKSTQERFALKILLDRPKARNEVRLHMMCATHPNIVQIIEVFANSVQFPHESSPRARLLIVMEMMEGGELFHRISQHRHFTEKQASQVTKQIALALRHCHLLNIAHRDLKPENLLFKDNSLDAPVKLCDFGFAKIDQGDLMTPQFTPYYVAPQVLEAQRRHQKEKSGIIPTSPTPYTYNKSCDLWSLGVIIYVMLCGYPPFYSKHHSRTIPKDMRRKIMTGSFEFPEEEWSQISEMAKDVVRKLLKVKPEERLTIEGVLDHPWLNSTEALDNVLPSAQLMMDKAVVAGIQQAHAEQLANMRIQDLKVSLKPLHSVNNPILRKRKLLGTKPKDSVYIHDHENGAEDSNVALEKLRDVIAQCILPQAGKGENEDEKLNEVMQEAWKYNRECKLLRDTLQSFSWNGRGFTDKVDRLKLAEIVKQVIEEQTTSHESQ
Insulin receptor-related protein (Homo sapiens), sequence (P14616 27-742 limits assumed): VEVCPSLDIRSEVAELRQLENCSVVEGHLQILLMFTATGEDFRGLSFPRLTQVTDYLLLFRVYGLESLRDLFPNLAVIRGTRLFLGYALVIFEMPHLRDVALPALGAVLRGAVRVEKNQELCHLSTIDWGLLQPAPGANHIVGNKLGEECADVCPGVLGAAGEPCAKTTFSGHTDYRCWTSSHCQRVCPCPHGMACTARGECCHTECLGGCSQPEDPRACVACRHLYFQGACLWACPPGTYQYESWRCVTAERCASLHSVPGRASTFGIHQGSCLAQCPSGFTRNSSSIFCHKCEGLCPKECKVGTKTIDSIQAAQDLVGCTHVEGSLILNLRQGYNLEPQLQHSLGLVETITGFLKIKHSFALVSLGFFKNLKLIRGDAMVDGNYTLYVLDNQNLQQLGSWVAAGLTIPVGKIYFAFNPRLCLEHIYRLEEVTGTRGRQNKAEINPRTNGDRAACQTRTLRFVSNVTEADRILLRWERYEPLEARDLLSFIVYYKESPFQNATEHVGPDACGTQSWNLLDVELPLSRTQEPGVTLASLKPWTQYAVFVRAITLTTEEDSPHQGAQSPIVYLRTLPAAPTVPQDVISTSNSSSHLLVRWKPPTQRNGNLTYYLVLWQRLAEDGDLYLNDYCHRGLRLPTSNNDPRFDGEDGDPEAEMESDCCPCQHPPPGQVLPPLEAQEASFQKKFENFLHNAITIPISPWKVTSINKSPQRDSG
Insulin receptor-related protein (Homo sapiens), sequence (P14616 747-1297 limits assumed): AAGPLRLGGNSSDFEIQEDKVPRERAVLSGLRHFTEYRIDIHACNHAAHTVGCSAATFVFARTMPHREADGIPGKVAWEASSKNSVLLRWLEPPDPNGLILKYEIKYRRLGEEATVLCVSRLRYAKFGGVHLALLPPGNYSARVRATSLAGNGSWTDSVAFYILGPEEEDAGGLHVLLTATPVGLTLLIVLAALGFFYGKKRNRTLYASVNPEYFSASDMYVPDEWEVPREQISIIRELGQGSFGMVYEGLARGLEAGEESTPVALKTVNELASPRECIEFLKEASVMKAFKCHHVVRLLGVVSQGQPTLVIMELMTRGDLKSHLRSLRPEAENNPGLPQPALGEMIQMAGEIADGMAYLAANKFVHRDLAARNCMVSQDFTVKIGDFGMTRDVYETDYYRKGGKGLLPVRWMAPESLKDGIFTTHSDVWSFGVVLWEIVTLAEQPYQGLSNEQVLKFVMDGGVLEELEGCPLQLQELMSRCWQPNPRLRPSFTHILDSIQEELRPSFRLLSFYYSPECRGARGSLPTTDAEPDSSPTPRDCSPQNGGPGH
Serine/threonine-protein kinase PAK 1 (Homo sapiens), sequence (Q13153 whole entry, canonical isoform): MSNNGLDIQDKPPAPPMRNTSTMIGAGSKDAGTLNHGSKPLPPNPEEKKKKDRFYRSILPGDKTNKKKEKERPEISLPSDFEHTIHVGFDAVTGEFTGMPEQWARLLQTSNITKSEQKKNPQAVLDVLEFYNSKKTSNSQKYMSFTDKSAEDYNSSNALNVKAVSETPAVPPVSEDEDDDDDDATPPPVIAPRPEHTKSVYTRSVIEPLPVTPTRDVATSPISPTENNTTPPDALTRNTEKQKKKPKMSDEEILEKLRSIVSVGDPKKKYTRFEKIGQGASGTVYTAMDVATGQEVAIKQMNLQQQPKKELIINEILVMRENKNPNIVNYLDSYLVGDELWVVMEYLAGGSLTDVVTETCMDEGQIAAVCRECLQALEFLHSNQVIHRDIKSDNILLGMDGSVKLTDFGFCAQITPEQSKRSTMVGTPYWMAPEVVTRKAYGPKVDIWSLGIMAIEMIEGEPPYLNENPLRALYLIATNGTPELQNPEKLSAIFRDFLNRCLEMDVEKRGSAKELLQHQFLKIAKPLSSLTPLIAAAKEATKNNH
Tyrosine-protein kinase CSK (Homo sapiens), sequence (P41240 2-450 limits assumed): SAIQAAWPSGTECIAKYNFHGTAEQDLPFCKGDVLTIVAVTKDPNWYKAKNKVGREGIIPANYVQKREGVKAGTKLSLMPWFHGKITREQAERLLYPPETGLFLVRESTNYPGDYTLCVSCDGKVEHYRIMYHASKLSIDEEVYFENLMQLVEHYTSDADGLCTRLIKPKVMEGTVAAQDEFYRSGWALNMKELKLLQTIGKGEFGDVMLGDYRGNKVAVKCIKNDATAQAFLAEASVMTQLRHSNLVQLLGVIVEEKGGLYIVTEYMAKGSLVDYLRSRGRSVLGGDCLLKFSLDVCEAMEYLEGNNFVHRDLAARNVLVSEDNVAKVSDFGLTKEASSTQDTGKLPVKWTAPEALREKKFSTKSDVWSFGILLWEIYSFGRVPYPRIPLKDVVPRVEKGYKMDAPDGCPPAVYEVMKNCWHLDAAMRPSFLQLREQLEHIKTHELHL
Mitogen-activated protein kinase kinase kinase kinase 1 (Homo sapiens), sequence (Q92918 whole entry, looked up): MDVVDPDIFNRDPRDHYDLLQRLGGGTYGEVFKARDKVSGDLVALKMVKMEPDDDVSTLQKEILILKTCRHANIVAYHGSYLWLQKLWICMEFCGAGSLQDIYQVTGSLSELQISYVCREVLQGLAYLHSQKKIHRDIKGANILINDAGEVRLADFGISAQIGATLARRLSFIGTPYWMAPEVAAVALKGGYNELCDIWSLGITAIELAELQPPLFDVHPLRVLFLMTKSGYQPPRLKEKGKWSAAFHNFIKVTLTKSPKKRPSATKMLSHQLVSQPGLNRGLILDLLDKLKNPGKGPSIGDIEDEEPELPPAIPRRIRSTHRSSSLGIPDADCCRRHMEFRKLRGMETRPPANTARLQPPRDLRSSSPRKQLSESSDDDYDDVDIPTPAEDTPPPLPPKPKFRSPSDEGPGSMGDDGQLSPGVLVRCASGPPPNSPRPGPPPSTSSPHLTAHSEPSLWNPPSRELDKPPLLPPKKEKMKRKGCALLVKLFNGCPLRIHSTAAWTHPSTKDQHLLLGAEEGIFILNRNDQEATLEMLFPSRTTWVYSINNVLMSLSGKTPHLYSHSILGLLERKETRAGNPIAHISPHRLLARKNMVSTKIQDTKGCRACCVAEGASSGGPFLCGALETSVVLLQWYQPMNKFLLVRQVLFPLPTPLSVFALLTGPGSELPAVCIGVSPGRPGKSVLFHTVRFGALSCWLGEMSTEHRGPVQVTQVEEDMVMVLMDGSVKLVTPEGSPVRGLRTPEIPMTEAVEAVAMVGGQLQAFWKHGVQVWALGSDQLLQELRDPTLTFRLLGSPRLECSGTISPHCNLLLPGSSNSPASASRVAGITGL
Aurora kinase B (Homo sapiens), sequence (Q96GD4 whole entry): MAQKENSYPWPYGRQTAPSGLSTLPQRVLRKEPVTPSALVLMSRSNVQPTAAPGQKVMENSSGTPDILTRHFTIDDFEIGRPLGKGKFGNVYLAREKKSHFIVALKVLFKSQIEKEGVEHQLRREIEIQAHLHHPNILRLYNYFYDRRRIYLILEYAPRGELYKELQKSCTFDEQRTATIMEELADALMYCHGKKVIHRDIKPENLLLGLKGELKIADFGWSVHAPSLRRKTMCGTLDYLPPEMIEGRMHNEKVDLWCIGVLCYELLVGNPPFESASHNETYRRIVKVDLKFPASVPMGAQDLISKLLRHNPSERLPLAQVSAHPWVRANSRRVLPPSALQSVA
Serine/threonine-protein kinase PLK1 (Homo sapiens), sequence (P53350 whole entry): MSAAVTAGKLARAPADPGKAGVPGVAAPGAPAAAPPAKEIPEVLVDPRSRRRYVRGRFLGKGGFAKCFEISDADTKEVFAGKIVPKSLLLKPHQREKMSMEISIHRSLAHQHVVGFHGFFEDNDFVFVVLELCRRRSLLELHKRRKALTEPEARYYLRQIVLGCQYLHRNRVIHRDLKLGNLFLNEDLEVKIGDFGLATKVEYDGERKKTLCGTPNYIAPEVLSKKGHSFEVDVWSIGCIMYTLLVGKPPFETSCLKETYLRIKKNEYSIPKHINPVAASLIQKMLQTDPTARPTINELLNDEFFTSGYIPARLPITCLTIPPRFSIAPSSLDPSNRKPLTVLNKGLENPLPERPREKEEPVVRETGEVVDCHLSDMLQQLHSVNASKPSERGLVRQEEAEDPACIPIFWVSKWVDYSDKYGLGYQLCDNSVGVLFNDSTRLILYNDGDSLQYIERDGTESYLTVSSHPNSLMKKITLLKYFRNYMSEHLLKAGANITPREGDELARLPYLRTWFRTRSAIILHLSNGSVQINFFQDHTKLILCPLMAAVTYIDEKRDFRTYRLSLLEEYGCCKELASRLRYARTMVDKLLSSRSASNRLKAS
Serine/threonine-protein kinase Nek6 (Homo sapiens), sequence (Q9HC98 whole entry): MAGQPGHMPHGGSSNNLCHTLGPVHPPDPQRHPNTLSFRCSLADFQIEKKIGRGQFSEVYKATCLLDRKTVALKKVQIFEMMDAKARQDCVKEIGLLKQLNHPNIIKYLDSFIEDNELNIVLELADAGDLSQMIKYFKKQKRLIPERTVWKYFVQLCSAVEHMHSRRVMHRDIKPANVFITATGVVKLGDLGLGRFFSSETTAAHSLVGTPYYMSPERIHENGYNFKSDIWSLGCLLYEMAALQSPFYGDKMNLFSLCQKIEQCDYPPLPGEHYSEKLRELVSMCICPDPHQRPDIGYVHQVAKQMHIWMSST

Q: For `Cn1nc(C(F)(F)F)cc1-c1cnc(N2CCc3cc(S(=O)(=O)Nc4c(F)cc(Cl)cc4F)cc(N4CCCC4=O)c32)nc1` [TP-020], which residual activity [1] is on record?
A: The residual activity was 97%.

Q: And the residual activity [2]?
A: Its residual activity is 100%.

Q: What about the residual activity [3] of the same compound?
A: Its residual activity is 86%.

Q: What about the residual activity [4] of the same compound?
A: The residual activity was 100%.

Q: And the residual activity [5]?
A: Its residual activity is 77%.

Q: What about the residual activity [6] of the same compound?
A: The residual activity was 100%.

Q: And the residual activity [7]?
A: The residual activity was 93%.

Q: What about the residual activity [8] of the same compound?
A: Its residual activity is 65%.

Q: What about the residual activity [9] of the same compound?
A: The residual activity was 100%.

Q: And the residual activity [10]?
A: The residual activity was 100%.

Q: And the residual activity [11]?
A: The residual activity was 65%.

Q: And the residual activity [12]?
A: The residual activity was 99%.

Q: What about the residual activity [13] of the same compound?
A: The residual activity was 82%.

Q: What about the residual activity [14] of the same compound?
A: Its residual activity is 69%.

Q: And the residual activity [15]?
A: Its residual activity is 100%.

Q: And the residual activity [16]?
A: The residual activity was 100%.

Q: And the residual activity [17]?
A: The residual activity was 97%.

Q: And the residual activity [18]?
A: Its residual activity is 100%.

Q: What about the residual activity [19] of the same compound?
A: The residual activity was 81%.

Q: What about the residual activity [20] of the same compound?
A: Its residual activity is 90%.

Q: What about the residual activity [21] of the same compound?
A: Its residual activity is 72%.

Q: What about the residual activity [22] of the same compound?
A: The residual activity was 96%.

Q: And the residual activity [23]?
A: The residual activity was 93%.

Q: What about the residual activity [24] of the same compound?
A: The residual activity was 83%.

Q: What about the residual activity [25] of the same compound?
A: The residual activity was 95%.

Q: And the residual activity [26]?
A: Its residual activity is 94%.

Q: And the residual activity [27]?
A: The residual activity was 88%.

Q: And the residual activity [28]?
A: Its residual activity is 100%.

Q: And the residual activity [29]?
A: The residual activity was 79%.

Q: What about the residual activity [30] of the same compound?
A: Its residual activity is 100%.

Q: What about the residual activity [31] of the same compound?
A: Its residual activity is 98%.

Q: What about the residual activity [32] of the same compound?
A: Its residual activity is 100%.

Q: What about the residual activity [33] of the same compound?
A: Its residual activity is 82%.

Q: What about the residual activity [34] of the same compound?
A: Its residual activity is 93%.

Q: What about the residual activity [35] of the same compound?
A: Its residual activity is 90%.

Q: What about the residual activity [36] of the same compound?
A: Its residual activity is 87%.

Q: What about the residual activity [37] of the same compound?
A: Its residual activity is 100%.

Q: And the residual activity [38]?
A: The residual activity was 100%.

Q: What about the residual activity [39] of the same compound?
A: Its residual activity is 90%.

Q: What about the residual activity [40] of the same compound?
A: Its residual activity is 93%.

Q: What about the inhibition [41] of the same compound?
A: The inhibition was 2.14%.

Q: What about the inhibition [42] of the same compound?
A: Its inhibition is 0.95%.

Q: And the inhibition [43]?
A: Its inhibition is 9.44%.

Q: What about the inhibition [44] of the same compound?
A: The inhibition was 4.33%.

Q: And the inhibition [45]?
A: The inhibition was -4.04%.

Q: What does the source list for `Nc1cnc(N2CCc3cc(S(=O)(=O)Nc4c(F)cc(Cl)cc4F)cc(N4CCCC4=O)c32)nc1`?
A: residual activity [1]: 100%; residual activity [2]: 83%; residual activity [3]: 98%; residual activity [4]: 100%; residual activity [5]: 85%; residual activity [6]: 91%; residual activity [7]: 99%; residual activity [8]: 100%; residual activity [9]: 100%; residual activity [10]: 94%; residual activity [11]: 100%; residual activity [12]: 100%; residual activity [13]: 100%; residual activity [14]: 100%; residual activity [15]: 100%; residual activity [16]: 97%; residual activity [17]: 77%; residual activity [18]: 83%; residual activity [19]: 96%; residual activity [20]: 100%; residual activity [21]: 100%; residual activity [22]: 93%; residual activity [23]: 100%; residual activity [24]: 61%; residual activity [25]: 92%; residual activity [26]: 100%; residual activity [27]: 42%; residual activity [28]: 100%; residual activity [29]: 75%; residual activity [30]: 89%; residual activity [31]: 71%; residual activity [32]: 76%; residual activity [33]: 100%; residual activity [34]: 100%; residual activity [35]: 84%; residual activity [36]: 89%; residual activity [37]: 78%; residual activity [38]: 91%; residual activity [39]: 100%; residual activity [40]: 85%; inhibition [41]: 7.41%; inhibition [42]: 9.34%; inhibition [43]: -1.31%; inhibition [44]: 4.68%; inhibition [45]: -2.31%
